Reference: patent US20210332005A1, “CH-ACIDIC M[…] FOR THE PREPARATION OF AQUEOUS POLYMER DISPERSIONS” (EVONIK OPERATIONS GMBH, priority 2018, published 2021)

Assay: Solubility of the product in water (stirred with water, aqueous phase analysed by HPLC)
Format: physicochemical
Settings: for content of the product in the aqueous phase (solubility in water): HPLC; for water-solubility, overall rating in words: summary statement
Method: The solubility of the product in water was determined as follows:
The product was stirred with water for three days at room temperature and the composition of the aqueous phase obtained in this way was determined using HPLC. The aqueous phase contained 6.7 wt % of the product.
A further sample of the product was stirred with water for three hours at 80° C. and cooled back to room temperature. The composition of the aqueous phase obtained in this way was subsequently determined using HPLC. The aqueous phase contained more than 10 wt % of the product.
The product was stirred with water for two days at room temperature and the composition of the aqueous phase obtained in this way was determined using HPLC. The aqueous phase contained 6.2 wt % of the product.
A further sample of the product was stirred with water for one hour at 60° C. and cooled back to room temperature. The composition of the aqueous phase obtained in this way was subsequently determined using HPLC. The aqueous phase contained 8.1 wt % of the product.
The product was stirred with water for three days at room temperature and the composition of the aqueous phase obtained in this way was determined using HPLC.
A further sample of the product was stirred with water for three hours at 80° C. and cooled to room temperature. The composition of the aqueous phase obtained in this way was subsequently determined using HPLC.

[1] = stirred with water for three days at room temperature
[2] = stirred with water for three hours at 80° C. and cooled back to room temperature

Structure (SMILES) | content of the product in the aqueous phase (solubility in water) [1] | content of the product in the aqueous phase (solubility in water) [2] | water-solubility, overall rating in words | content of the product in the aqueous phase (solubility in water) (stirred with water for one hour at 60° C. and cooled back to room temperature) [wt %] | content of the product in the aqueous phase (solubility in water) (stirred with water for two days at room temperature) [wt %]
C=C(C)C(=O)NCCCCCCNC(=O)CC#N [Comparative Example 3, N-(2-cyanoethylamidohexyl)methacrylamide, reference compound] | virtually insoluble in water | virtually insoluble in water | very low water-solubility |  | 
C=C(C)C(=O)NCCCCNC(=O)CC#N [Example 5, N-(2-cyanoethylamidobutyl)methacrylamide] |  |  | high water-solubility | 8.1 | 6.2
C=C(C)C(=O)NCCNC(=O)CC#N [Example 3, N-(2-cyanoethylamidoethyl)methacrylamide] | 6.7 wt % | more than 10 wt % | high water-solubility |  | 
